The values that follow come from patent publication US5958407A, “Ileus treatment method” (The Regents of the Uinversity of California, priority 1998, dated 1999).

One experiment addresses T1, PAR-2 (Rattus norvegicus, UniProt Q63645).
T1 construct: endogenous in cells; host or cells: cultured colonic myocytes (rat)
T1 sequence (Q63645 26-397): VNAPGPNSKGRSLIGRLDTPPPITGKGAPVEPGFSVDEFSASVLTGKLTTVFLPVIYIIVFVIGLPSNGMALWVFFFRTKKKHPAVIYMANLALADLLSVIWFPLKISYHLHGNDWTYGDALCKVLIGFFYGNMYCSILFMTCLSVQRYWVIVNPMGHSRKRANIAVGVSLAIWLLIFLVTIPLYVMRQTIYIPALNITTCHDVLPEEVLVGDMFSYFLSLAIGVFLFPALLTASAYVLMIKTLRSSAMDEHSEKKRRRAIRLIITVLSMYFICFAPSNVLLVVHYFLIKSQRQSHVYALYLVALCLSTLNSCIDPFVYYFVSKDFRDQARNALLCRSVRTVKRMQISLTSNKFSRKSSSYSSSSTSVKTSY
Nature of the experiment: Ca2+ mobilization by colonic myocytes (Fura-2). The class given is cell-based. The following applies: for EC50: read-out: EC50, increase in [Ca2+]i. Here is the method:
Ac. Ca^2+ Mobilization by Colonic Myocytes. The activation of PAR-2 in myocytes was assessed by measuring Ca^2+ mobilization, as described in Example 3.
(§1) Degranulation of HMC-1 cells (human mast cell line) with substance P was induced, and a filtrate for Ca^2+ responses in myocytes was assessed, to determine if mast cells release proteases that cleave and activate PAR-2.
(§2) Myocytes were incubated in physiological salt solution (PSS) with 2.5 μM Fura-2/AM for 20 min at 37° C. Fluorescence was measured in individual cells using an ICCD video camera (Stanford Photonics, Stanford, Calif.) and a video microscopy acquisition program (Axon Industries, Foster City, Calif.). Fluorescence was measured at 340 and 380 nm excitation and 510 nm emission. The ratio of the fluorescence at the two excitation wavelengths, which is proportional to the [Ca^2+ ]i, was calculated. Fresh cells were studied with each agonist and a minimum of 10 cells analyzed in 2-4 experiments on different days.

Experiment [1] has as its system strips of rat proximal colon.
The subject of experiment [2] is mice with cecal manipulation. Nature of the experiment: GI transit in mice with surgically induced ileus. The class given is in vivo. The following applies: 1 mg/kg orally 30 minutes prior to anesthesia. Here is the method:
GI transit was measured in fed mice by oral gavage pf 0.3 ml carmine red in methylcellulose. Whole GI transit time was defined as the appearance of the first red fecal pellet. Upper GI transit time was defined as the appearance as the percentage of the distance traveled along the small intestine by the marker in 30 minutes. Cecal manipulation for 5 minutes or skin incision alone was performed under halothane anesthesia and the marker administered 1 hour after surgery.
Skin incision alone had little effect on transit time.

Experiment [3] has as its target T2, tryptase (Homo sapiens, UniProt Q15661). The experiment is described as follows: Inhibition of the Ca2+ response of myocytes to HMC-1 mast cell filtrate. The class given is cell-based. Further details: HMC-1 human mast cells; endogenous in cells; host or cells: HMC-1 human mast cells, filtrate after degranulation with substance P. As for the experimental part: as §1, §2
HMC-1 human mast cells (300 μl of 7×10^6 /ml in PSS containing 25 μg/ml heparin) were incubated with 100 μM substance P for 5 min at room temperature to induce degranulation. The suspension was filtered and assayed for stimulation of Ca^2+ mobilization.

In experiment [4] the target is T2, tryptase. Nature of the experiment: Ca2+ response of myocytes to tryptase pre-incubated with inhibitor. The class given is cell-based. As for the experimental part: as §2
The target in experiment [5] is T2, tryptase. The following applies: cited from earlier work.
The test system of another experiment is trypsin. The experiment is described as follows: Ca2+ response of myocytes to trypsin pre-incubated with inhibitor. The class given is cell-based. The following applies: 1 nM trypsin; 10 mg/ml SBTI, 60 min at 37° C. before assay. As for the experimental part:
Ac. Ca^2+ Mobilization by Colonic Myocytes. The activation of PAR-2 in myocytes was assessed by measuring Ca^2+ mobilization, as described in Example 3. Trypsin and AP (SLIGRL-NH2) stimulated a prompt increase in [Ca^2+ ]i.
as §2

Values joined by “and” are separate entries in the source; they are usually repeats but may differ in a detail not shown here. Equal entries are not always repeated. Where two headings read alike, the source gives them in different places. No end group written: not given here.

T2 sequence (Q15661 31-275): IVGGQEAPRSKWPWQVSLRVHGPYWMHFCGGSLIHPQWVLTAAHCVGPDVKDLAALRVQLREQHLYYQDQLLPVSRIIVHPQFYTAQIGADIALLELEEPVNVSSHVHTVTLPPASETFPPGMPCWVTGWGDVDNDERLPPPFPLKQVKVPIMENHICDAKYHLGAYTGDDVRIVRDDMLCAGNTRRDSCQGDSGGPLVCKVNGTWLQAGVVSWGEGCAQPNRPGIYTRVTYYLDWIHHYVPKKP

As to SLIGRL-NH2 [AP, SLIGRL-NH2], the EC50 at PAR-2 (colonic myocytes) was about 1000 nM.
As for `NC1=N[C@H](O)[C@H]2[C@H]3O[C@]4(O)O[C@@H]([C@@H](O)[C@@]2(N1)[C@@H]4O)[C@]3(O)CO` [tetrodotoxin], in experiment [1], the “effect on amplitude and frequency of contractions” value is “immediate and sustained increase”.
Turning to `CN1CCC(=C2c3ccccc3CC(=O)c3sccc32)CC1` [ketotifen], in experiment [2] (cecal manipulation), the “effect on inhibition of GI transit produced by abdominal surgery” value is on record as “partially reversed”. Also, the “effect on transit time in unoperated animals” value in experiment [2] (unoperated) is “little effect”.
In the case of `CC(=O)N[C@@H](CC(C)C)C(=O)N[C@@H](CC(C)C)C(=O)N[C@H](C=O)CCCNC(=N)N` [leupeptin], the “inhibition of the [Ca2+]i response to HMC-1 mast cell filtrate” value at tryptase [3] (myocytes, filtrate of HMC-1 cells degranulated with substance P) came to 46.5±4%. Besides, the “Ca2+ response to tryptase after pre-incubation with inhibitor” value at tryptase [4] (40 nM tryptase, 1 μM inhibitor, 5 min at room temperature before assay) is listed as “no Ca^2+ response”.
In the case of `COc1ccc2c(c1)c(CC(=O)O)c(C)n2C(=O)c1ccc(Cl)cc1` [indomethacin], the “effect of pre-incubation on the response to trypsin and AP” value in experiment [1] (1 μM indomethacin for 15 min) was “had no effect”.
In the case of `CC(C)(C)c1ccc(OC(=O)[C@H]2CC[C@H](CNC(=N)N)CC2)cc1` [GMCHA-OPhBut, trans-4-guanidinomethylcyclohexane-carboxylic acid 4-tert butylphenyl ester], the “concentrations that inhibit tryptase activity” value on tryptase [5] was 1 to 100 µM.
For the molecule “substance P: used to induce degranulation of HMC-1 mast cells”, the “Ca2+ mobilization in myocytes” value with PAR-2 (100 μM substance P) was “did not stimulate”.
In the case of `CCCCC[C@H](O)/C=C/[C@H]1[C@H](O)CC(=O)[C@@H]1C/C=C\CCCC(=O)O` [PGE2], the “effect on colonic motility” value in experiment [1] (30 nM PGE2) is given as “inhibited colonic motility”.
As to HOE-140, in experiment [1] (100 nM bradykinin, pre-incubation with 100 nM HOE-140 for 5 min), the “effect on bradykinin-induced inhibition of spontaneous contractions” value was “abolished”. Besides, the “effect on the inhibition of colonic motility by trypsin and AP” value in experiment [1] (HOE-140) is “had no effect”.
For `COC(=O)[C@@H](N)CCCNC(=N)N[N+](=O)[O-]` [L-NAME, L-N^G -nitro arginine methyl ester], the “effect of pre-incubation on the effects of trypsin and AP” value in experiment [1] (100 μM L-NAME for 15 min) is recorded as “did not prevent”.
As for RPPGFSPFR [bradykinin], the “effect on spontaneous contractions” value in experiment [1] (100 nM bradykinin) is “marked inhibition of spontaneous contractions”.
With `N=C(N)c1ccc2nc(Cc3nc4ccc(C(=N)N)cc4[nH]3)[nH]c2c1` [BABIM, bis(5-amidino-2-benzimidazolyl) methane], the “inhibition of the [Ca2+]i response to HMC-1 mast cell filtrate” value at tryptase [3] was 46.5±1% and ~ 50%. Moreover, the “Ca2+ response to tryptase after pre-incubation with inhibitor” value on tryptase [4] is on record as “no Ca^2+ response”.
For the molecule “tryptase: mast cell protease released upon degranulation”, in the experiment with PAR-2 (colonic myocytes), the EC50 is about 100 nM. Further, the “fold less potent than trypsin (Ca2+ mobilization)” value with PAR-2 (colonic myocytes, tryptase vs trypsin) is 100 fold. In experiment [1] (tryptase at concentrations of up to 90 nM), the “effect on amplitude of spontaneous contractions” value is on record as “did not alter the amplitude of spontaneous contractions”.

B1: trypsin: protease that cleaves and activates PAR-2 (protein, UniProt P00760 24-246, looked up)
Serine protease 1: IVGGYTCGANTVPYQVSLNSGYHFCGGSLINSQWVVSAAHCYKSGIQVRLGEDNINVVEGNEQFISASKSIVHPSYNSNTLNNDIMLIKLKSAASLNSRVASISLPTSCASAGTQCLISGWGNTKSSGTSYPDVLKCLKAPILSDSSCKSAYPGQITSNMFCAGYLEGGKDSCQGDSGGPVVCSGKLQGIVSWGSGCAQKNKPGVYTKVCNYVSWIKQTIASN
For B1, the “fold more potent than AP (Ca2+ mobilization)” value with PAR-2 is 1,000 fold. The EC50 with PAR-2 (colonic myocytes) is about 1 nM. Besides, in experiment [1], the “effect on motility of tetrodotoxin-treated tissues” value is recorded as “inhibited this elevated motility” and the “fold more potent than AP (colonic motility)” value is given as 10 fold. Besides, the “time to recovery of spontaneous activity after washing” value in experiment [1] (1 μM trypsin for 5 min, then washed extensively) is reported as over 6 h. The “inhibition of mean amplitude at highest concentration” value in experiment [1] (3 μM trypsin) was 60%. Moreover, in experiment [1] (colon strips (mucosa plus muscle)), the “threshold for inhibition of mean amplitude of spontaneous contractions” value is 300 nM. In experiment [1] (colonic strips with mucosa removed), the “effect on spontaneous contractions in the absence of the mucosa” value is reported as “inhibited spontaneous contractions”. In experiment [1] (read-out: EC50, reduction in mean amplitude of spontaneous contractions, colon strips (mucosa plus muscle)), the EC50 is about 500 nM. The “delay before inhibition of motility” value in experiment [1] (trypsin at 1 μM, AP concentration not stated) is 31 ± 5 s.

B2: SBTI: SBTI, pre-incubated with trypsin before assay; abbreviation not expanded (protein, UniProt P01070 25-205, looked up)
Trypsin inhibitor A: DFVLDNEGNPLENGGTYYILSDITAFGGIRAAPTGNERCPLTVVQSRNELDKGIGTIISSPYRIRFIAEGHPLSLKFDSFAVIMLCVGIPTEWSVVEDLPEGPAVKIGENKDAMDGWFRLERVSDDEFNNYKLVFCPQQAEDDKCGDIGISIDHDDGTRRLVVSKNKPLVVQFQKLDKESL
As to B2, the “Ca2+ response to trypsin after pre-incubation with inhibitor” value in the experiment with trypsin is “no Ca^2+ response”.

For orientation: EC50 means the concentration that produces a half-maximal response.
